Source: PMC2211560 (PLoS Medicine, 2008)
Several values for one entry are separate records, joined by “and”; a condition that tells them apart may be missing. Equal values may be shown once. Read-outs that look alike come from different tables or passages of the source.

Assays:
[1] = test system: short-term cultures derived from tumors; assay: Ex vivo rapamycin response of short-term tumor cultures (S6 immunoblot); type: cell-based, human; conditions: 0.3 and 3.0 nM, 8 h; rapamycin-sensitive (patients 1 and 3) and rapamycin-resistant (patients 2 and 12) samples
Text: The lower and upper end of the box corresponds to the 25th and 75th percentile, respectively. The whiskers extend to the 95% range. The Wilcoxon nonparametric group comparison test was used to calculate p-values for the differences between different patient groups. […] The horizontal line inside the box indicates the median value. The lower and upper border of the box corresponds to the 25th and 75th percentile, respectively. The whiskers extend to the 95% range.

[2] = test system: PTEN-null cell lines; parameters: method as in PMID 11504908, PMID 11566616; conditions: PTEN-null cell lines in vitro; cited from earlier work
[3] = in vivo
Method: Adverse events were evaluated according to the National Cancer Institute Common Toxicity Criteria, version 2 (http://ctep.info.nih.gov/reporting/index.html).
The first three patients were enrolled at the initial dose level of 2 mg per day. After a four week evaluation period for dose limiting toxicity, a minimum of 3 more patients could be enrolled at the next dose level. […] Presurgical dosing included the loading dose followed by the daily maintenance dose until surgery. After the patient recovered from the effects of surgery, identical loading and maintenance doses (e.g., 6 mg and 2 mg, respectively) were administered. […] Assessment of drug safety was done following a routine schedule and supplemented by additional evaluation whenever a patient reported a new symptom. […] Toxicities were graded according to the National Cancer Institute Common Toxicity Criteria version 2.0. Treatments were held until recovery to ≤ grade 1 toxicity for ANC < 1000/µl, platelets < 80,000/ µl, grade 3 or grade 4 non-hematologic toxicities, and grade 4 hypercholesterolemia or hypertryglyceridemia. […] A 50 % dose reduction was made for ANC < 750/µl, platelets < 50,000/µl, or grade 4 non-hematological AE. Patients were allowed two dose reductions.

[4] = cited from earlier work; for mucosal HERPES SIMPLEX infections, patients: phase III trial, with cyclosporine and corticosteroids, ref MacDonald et al, 2001
[5] = test system: recurrent PTEN-deficient glioblastoma; assay: Clinical outcome: time-to-progression and radiographic response; type: in vivo, human; conditions: for TTP: interval between start of rapamycin and postoperative treatment failure, individual patients
Text: Figure 1 Clinical Trial Design Enrollment in the Phase I clinical trial was restricted to patients whose initial tumor resection (“surgery 1”) specimen was PTEN-deficient by immunohistochemistry. Patients were enrolled after failing standard therapy with radiation and chemotherapy (i.e., “tumor recurrence”).
Patients were allowed two dose reductions.

CO[C@H]1C[C@@H]2CC[C@@H](C)[C@@](O)(O2)C(=O)C(=O)N2CCCC[C@H]2C(=O)O[C@H]([C@H](C)C[C@@H]2CC[C@@H](O)[C@H](OC)C2)CC(=O)[C@H](C)/C=C(\C)[C@@H](O)[C@@H](OC)C(=O)[C@H](C)C[C@H](C)/C=C/C=C/C=C/1C [Rapamycin]
S6 phosphorylation ex vivo [1]: inhibited equally | Rapamycin concentrations known to confer antiproliferative activity [2]: ~1 nM | grade 3 or 4 toxicities ([3]; human): No grade 3 or 4 toxicities | patients with grade 3 adverse events (hypokalemia, hypercholesterolemia, and cytopenias) ([3]; human): Five of 15 | patients with grade 3 adverse events (hypokalemia, hypercholesterolemia, and cytopenias) [3]: five | perioperative bleeding complications [3]: no perioperative bleeding complications | ANEMIA, patients ([4]; human, in vivo): 27-37% | ARTHRALGIA ([4]; human, in vivo): 25-31% | CONSTIPATION ([4]; human, in vivo): 28-36% | DIARRHEA ([4]; human, in vivo): 25-42% | DYSPEPSIA ([4]; human, in vivo): 17-25% | DYSPNEA, patients ([4]; human, in vivo): 22-30% | EPISTAXIS, patients ([4]; human, in vivo): 9% | HEADACHE, patients ([4]; human, in vivo): 23-34% | HYPERTENSION, patients ([4]; human, in vivo): 43-45% | HYPOKALEMIA, patients ([4]; human, in vivo): 11-21% | HYPOPHOSPHATEMIA, patients ([4]; human, in vivo): 15-23% | Hyperlipidemia ([4]; human, in vivo): 38-57% | NAUSEA ([4]; human, in vivo): 25-36% | Normalization of platelet counts after discontinuation ([4]; human, in vivo): ≤ 2 weeks | Peripheral EDEMA, patients ([4]; human, in vivo): 54-64% | Posttransplant lymphoproliferative disease (PTLD) ([4]; human, in vivo): 0.8% | THROMBOCYTOPENIA, patients ([4]; human, in vivo): 13-30% | VOMITING ([4]; human, in vivo): 19-25% | arthralgia, patients ([4]; human, in vivo): 23% | hypercholesterolemia ([4]; human, in vivo): 38-46% | insomnia, patients ([4]; human, in vivo): 13-22% | patients with triglyceride levels exceeding 5 mmol/L ([4]; human, in vivo): 75% | total cholesterol mean peak ([4]; human, in vivo): 12 mmol/L | tremor, patients ([4]; human, in vivo): 21-31% | mucosal HERPES SIMPLEX infections, patients ([4]; sirolimus 2 mg/day): 10% | mucosal HERPES SIMPLEX infections, patients ([4]; sirolimus 5 milligrams (mg)/day): 19% | TTP ([5]; 2 mg oral daily): 62 days and 40 days and 70 days | TTP ([5]; 5 mg oral daily): 194 days and 69 days and 144 days and 153 days and 42 days | TTP ([5]; 10 mg oral daily): 39 days and 538 days and 98 days and 146 days and 99 days and 55 days | tumor regression by magnetic resonance imaging ([5]; Patient 8, extended neoadjuvant course (25 d), 5 mg, prior to surgery): > 50% | duration of radiographically stable disease postoperatively ([5]; Patient 11): > 16 mo | time from starting rapamycin to death without evidence of tumor recurrence ([5]; Patient 11, 10 mg): 538 days | Radiographic Response to Rapamycin ([5]; single-agent rapamycin, study patients): 2/15
